From US20140234502A1, “Treatment of Produce” (Rohm and Haas Company, priority 2009, published 2014)

Key:
Type in all cases: in vivo, pear
Conference Pears [1] = test: Color rating of Conference pears; conditions: ambient 5-8 days; for Italy color / SW France color: scale of 0 (green) to 5 (yellow)
Description: (§1) Pears (Conference, William's/Bartlett, or Packam's) were harvested at maturity for long storage. Number of fruits and replicates were selected according to the size of the chamber in which to apply 1-MCP and according to the statistical design. Airtight containers in the range of 1 cubic meter were used for the application of both 1-MCP and ethylene. 1-MCP was released from SmartFresh™ powder that contained 0.14% 1-MCP by weight (obtained from AgroFresh, Inc.). The amount of that SmartFresh™ powder was chosen to yield the target atmospheric concentration of 1-MCP in the chosen container. For example, the 1-MCP released from 1000 mg of that SmartFresh™ powder in 1 cubic meter yielded 1-MCP concentration in the atmosphere of 625 ppb.
(§2) The chosen amount of SmartFresh™ powder was dissolved in water into a tight flask and shaken until all the powder was dissolved. The flask was then put it into the airtight container and opened, to release the 1-MCP. At the same time of the opening of the 1-MCP flask, ethylene was injected with a syringe into the airtight container. Ethylene was taken from a compressed tank at known concentration: either taken directly or released into a flask. In the latter case the concentration was measured by gas-chromatograph to determine the quantity of volume to inject into the airtight container to get the target concentration.
(§3) The exposure to atmosphere containing either 1-MCP alone or 1-MCP and ethylene was done on cold pears (already cooled down to non-ambient storage temperature) within a maximum of 7 days from harvest and lasted 24 hours. At the end of the application, the airtight container was vented for 15 minutes and the fruits were put into RA or CA storage. RA storage was at temperature of −1° C. to 1° C. and at relative humidity of 80% to 98%. CA storage had the same temperature and humidity of RA storage, had oxygen level of 1% to 3%, by volume based on the volume of the atmosphere and had carbon dioxide level of 0.5% to 2%, by volume based on the volume of the atmosphere.
Pears were tested for firmness, as described above, and were rated for color on a scale of 0 (green) to 5 (yellow).

William's Pears = test: Firmness of William's pears by penetrometer after treatment, non-ambient storage and shelf life; conditions: South Africa, RA for 8 weeks, ambient for 5 days
Description: as §1, §2
The exposure to atmosphere containing either 1-MCP alone or 1-MCP and ethylene was done on cold pears (already cooled down to non-ambient storage temperature) within a maximum of 7 days from harvest and lasted 24 hours. At the end of the application, the airtight container was vented for 15 minutes and the fruits were put into RA or CA storage. RA storage was at temperature of −1° C. to 1° C. and at relative humidity of 80% to 98%. […]
(§4) Pears denoted with a single number (e.g., “300”) received 1-MCP treatment with that concentration, in ppb, of 1-MCP in the atmosphere (e.g., 300 ppb) and were not exposed to exogenous ethylene. […] Reported quantity is “firmness” (“F”), the penetrometer force in kgf. […]

Conference Pears [2] = test: Examination of Conference pears for scald; conditions: Example 9, CA 6 months, Italy
Description: as §1, §2, §3
Pears from Italy (the same pears whose firmness is reported herein above in Example 5) were examined for scald after exposure to ambient conditions for the number of days shown below.

Packam's Pears = test: Firmness of Packam's pears by penetrometer after treatment, non-ambient storage and shelf life; conditions: South Africa, ambient 5 days
Description: as §1, §2, §3
In addition, samples of pears (from the same orchards from which pears treated with 1-MCP alone or 1-MCP and ethylene were harvested) were put into an airtight container for 24 hours at the temperature as the treated pears in order to reproduce the same environmental conditions. Then they were stored in the same rooms or in separated rooms in the same conditions of RA and CA as the treated pears. […]
as §4

Conference Pears [3] = test: Firmness of Conference pears by penetrometer after treatment, non-ambient storage and shelf life; design: key to SW France F (firmness) / Italy F (firmness) / Average F (firmness): penetrometer force in kgf (8 mm probe); conditions: for ES A F (firmness): farm ES A; for ES B F (firmness): farm ES B; for IT F (firmness): farm IT; for firmness: Example 9, CA 6 months; for Italy F (firmness) / firmness: Italy; for Orchard #1 F (firmness) / Orchard #2 F (firmness) / Orchard #3 F (firmness): Example 11, Spain, RA 3 months
Description: as §1, §2, §3
In addition, samples of pears (from the same orchards from which pears treated with 1-MCP alone or 1-MCP and ethylene were harvested) were put into an airtight container for 24 hours at the temperature as the treated pears in order to reproduce the same environmental conditions. Then they were stored in the same rooms or in separated rooms in the same conditions of RA and CA as the treated pears. These pears received no exposure to 1-MCP, exogenous ethylene, or any combination thereof, and they are labeled “control” below.
Length of non-ambient storage at present commercial temperature and storage regime was generally of 2-4 months in RA and 6 months in CA, unless otherwise specified, according to normal commercial practice.
All pears received the same progression of non-ambient storage followed by exposure to ambient conditions (“shelf life”).
Pears denoted with a single number (e.g., “300”) received 1-MCP treatment with that concentration, in ppb, of 1-MCP in the atmosphere (e.g., 300 ppb) and were not exposed to exogenous ethylene. Pears denoted with two numbers (e.g. “300+600”) were treated with both that concentration in ppb of 1-MCP and that concentration in ppb of ethylene (e.g., 300 ppb of 1-MCP and 600 ppb of ethylene). The firmness of pears was tested using commercial penetrometers with test probe of 8 mm diameter. Reported quantity is “firmness” (“F”), the penetrometer force in kgf.

Conference Pears [4] = test: Inspection of Conference pears for rot, bruising and internal browning
Description: as §1, §2, §3
After RA storage, pears were exposed to ambient for the number of days shown below and then inspected for rot, bruising, and internal browning (“I.B.”). Results shown are the percentage of pears having the disorder.
Pears from SW France were examined as in Example 7, and the percent disordered fruit was as follows: […]

[5] = Example 3, RA 3 months, ambient 5 to 8 days
[6] = Example 4, CA 6 months, ambient 5 to 8 days
[7] = Example 5, RA 3 months, ambient 5-8 days
[8] = Example 6, CA 6 months, ambient 5-8 days
[9] = Example 7, RA 4 months, SW France, 13 ambient days
[10] = Example 8, CA 6 months, ambient 13 days, SW France

CC1=CC1 [300(C), 1-MCP]
Italy color (Conference Pears [1]; Example 5, RA 3 months): 1.9 | SW France color (Conference Pears [1]; Example 5, RA 3 months): 2.95 | Italy color (Conference Pears [1]; Example 6, CA 6 months): 2.4 | SW France color (Conference Pears [1]; Example 6, CA 6 months): 2.7 | Average color (Conference Pears [1]; Example 6, CA 6 months, average of SW France and Italy, scale 0 (green) to 5 (yellow)): 2.6 | farm 1 F (firmness) (William's Pears; farm 1): 6.7 kgf | farm 2 F (firmness) (William's Pears; farm 2): 5.6 kgf | farm 3 F (firmness) (William's Pears; farm 3): 7.2 kgf | percent with scald (Conference Pears [2]; 0 ambient days): 0% | percent with scald (Conference Pears [2]; 7 ambient days): 1% | 8 weeks F (firmness) (Packam's Pears; RA for 8 weeks): 6.8 kgf | 12 weeks F (firmness) (Packam's Pears; RA for 12 weeks): 5.8 kgf | AV F (firmness), average of the results from the seven farms (Conference Pears [3]; [5]): 4.6 kgf | ES A F (firmness) (Conference Pears [3]; [5]): 2.5 kgf | ES B F (firmness) (Conference Pears [3]; [5]): 3.4 kgf | FR A F (firmness) (Conference Pears [3]; Example 3, RA 3 months, ambient 5 to 8 days, farm FR A): 5.3 kgf | FR B F (firmness) (Conference Pears [3]; Example 3, RA 3 months, ambient 5 to 8 days, farm FR B): 5.1 kgf | IT F (firmness) (Conference Pears [3]; [5]): 4.8 kgf | NL A F (firmness) (Conference Pears [3]; Example 3, RA 3 months, ambient 5 to 8 days, farm NL A): 5.3 kgf | NL B F (firmness) (Conference Pears [3]; Example 3, RA 3 months, ambient 5 to 8 days, farm NL B): 5.6 kgf | Av F (firmness), average of the results from the six farms (Conference Pears [3]; [6]): 4.1 kgf | ES A F (firmness) (Conference Pears [3]; [6]): 4.2 kgf | ES B F (firmness) (Conference Pears [3]; [6]): 3.3 kgf | FR F (firmness) (Conference Pears [3]; Example 4, CA 6 months, ambient 5 to 8 days, farm FR): 4.7 kgf | IT F (firmness) (Conference Pears [3]; [6]): 4.7 kgf | NL A F (firmness) (Conference Pears [3]; Example 4, CA 6 months, ambient 5 to 8 days, farm NL A): 4.4 kgf | NL B F (firmness) (Conference Pears [3]; Example 4, CA 6 months, ambient 5 to 8 days, farm NL B): 3.4 kgf | Italy F (firmness) (Conference Pears [3]; [7]): 4.8 | SW France F (firmness) (Conference Pears [3]; [7]): 5.1 | Italy F (firmness) (Conference Pears [3]; [8]): 4.7 | SW France F (firmness) (Conference Pears [3]; [8]): 4.7 | Average F (firmness) (Conference Pears [3]; Example 6, CA 6 months, ambient 5-8 days, average of SW France and Italy): 4.7 | firmness (Conference Pears [3]; 0 ambient days): 6.5 kgf | firmness (Conference Pears [3]; 7 ambient days): 4.7 kgf | Average F (firmness), average of the two orchards (Conference Pears [3]; Example 10, RA 3 months, ambient 5 days): 4.48 kgf | NL A F (firmness) (Conference Pears [3]; Example 10, RA 3 months, ambient 5 days, NL A): 5.59 kgf | NL B F (firmness) (Conference Pears [3]; Example 10, RA 3 months, ambient 5 days, NL B): 3.37 kgf | Orchard #1 F (firmness) (Conference Pears [3]; 0 days ambient): 5.72 kgf | Orchard #2 F (firmness) (Conference Pears [3]; 0 days ambient): 5.92 kgf | Orchard #3 F (firmness) (Conference Pears [3]; 0 days ambient): 5.97 kgf | Orchard #1 F (firmness) (Conference Pears [3]; 7 days ambient): 5.84 kgf | Orchard #2 F (firmness) (Conference Pears [3]; 7 days ambient): 5.53 kgf | Orchard #3 F (firmness) (Conference Pears [3]; 7 days ambient): 5.44 kgf | Orchard #1 F (firmness) (Conference Pears [3]; 12 days ambient): 5.55 kgf | Orchard #2 F (firmness) (Conference Pears [3]; 12 days ambient): 5.68 kgf | Orchard #3 F (firmness) (Conference Pears [3]; 12 days ambient): 5.62 kgf | percentage of pears having internal browning (I.B.) (Conference Pears [4]; Example 7, RA 4 months, Loire, France, 11 ambient days): 0 percentage | percentage of pears having internal browning (I.B.) (Conference Pears [4]; Example 7, RA 4 months, Loire, France, 13 ambient days): 0 percentage | percentage of pears having internal browning (I.B.) (Conference Pears [4]; Example 7, RA 4 months, Loire, France, 15 ambient days): 0 percentage | percentage of pears having bruising (Conference Pears [4]; [9]): 0 percentage | percentage of pears having internal browning (I.B.) (Conference Pears [4]; [9]): 0 percentage | percentage of pears having rot (Conference Pears [4]; [9]): 0 percentage | percent disordered fruit: I.B. (Conference Pears [4]; [10]): 34% | percent disordered fruit: rot (Conference Pears [4]; [10]): 12%
